Like-named read-outs stand apart in the source and are kept apart here. Some results are limits rather than exact numbers.

Usually IC50 stands for the concentration at which inhibition is half-maximal.

Holding throughout (format): cell-based
Test [1] relates to renal carcinoma cells (786-O). The experiment in a line: In vitro potency (CellTiter-Glo, 96 h), 786-O. As to conditions: Homo sapiens, 786-0, 96 h. Summed up: (§1)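 IC50 (ng/mL or nmol/L) derived from CellTiter-Glo luminescence after 96 h exposure at 37 °C to serial dilutions of ADC or CPT free drug. Log-phase cells had been plated 24 h beforehand in RPMI 1640 containing 20% FBS.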
On the technique in general: In ATP-based viability assays light output follows the ATP content of the culture.

The subject of test [2] is pancreatic cancer cells (BxPC3). The experiment in a line: In vitro potency (CellTiter-Glo, 96 h), BxPC3. As to conditions: Homo sapiens, BXPC-3, 96 h. Summed up: (§2)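 Antibody-drug conjugates, prepared as dilution series in culture medium, were added to cells seeded a day earlier in RPMI 1640 supplemented with 20% FBS. After four days at 37 °C, luminescence measured growth inhibition.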

For test [3], the system named is Hodgkin's lymphoma cells (L540cy). In words: In vitro potency (CellTiter-Glo, 96 h), L540cy. In outline:
as §1

Test [4] relates to acute myeloid leukemia cells (MOLM-13). In words: In vitro potency (CellTiter-Glo, 96 h), MOLM-13. As to conditions: Homo sapiens, MOLM-13, 96 h. Summed up: as §2
Test [5] concerns B-lymphocyte cancer cells (SU-DHL4). In words: In vitro potency (CellTiter-Glo, 96 h), SU-DHL-4. The conditions noted are these: Homo sapiens, SU-DHL-4, 96 h. In outline:
as §1

Test [6] has as its system multiple myeloma cells (MM.1R). The experiment in a line: In vitro potency (CellTiter-Glo, 96 h), MM.1R. As to conditions: camptothecin drugs, Table 13, CellTiter-Glo after 96 h exposure. The protocol:
(§3) In vitro potency was assessed on multiple cancer cell lines. All cell lines were authenticated by STR profiling at IDEXX Bioresearch and cultured for no more than 2 months after resuscitation. Cells cultured in log-phase growth were seeded for 24 hours in 96-well plates containing […] RPMI 1640 supplemented with 20% FBS. Following addition of test articles, cells were incubated with test articles for 4 days at 37 0° C. After 96 hours, growth inhibition was assessed by CellTiterGlo® (Promega, Madison, WI) and luminescence was measured on a plate reader.
(§4) Cell viability was determined by CellTiter-Glo staining after 96 h exposure to the compound. ND=Not Determined. The cancer cell lines tested are renal carcinoma cells (786-0), melanoma cells (A2058), pancreatic cancer cells (BxPC3), non-small-cell lung cancer cells (Calu1), anaplastic large cell lymphoma cells (DEL, DELBVR, Karpas299), Hodgkin's lymphoma cells (L540cy), (Ls 174T), breast cancer cells (MDA-MB-231), acute myeloid leukemia cells (MOLM-13), B-lymphocyte cancer cells (SU-DHL4), multiple myeloma cells (MM.1R), (U266), and melanoma cells (SK-MEL-5).
as §3, with “FBS. Serial dilutions of antibody-drug conjugates in cell culture media were prepared at 4× working concentrations, and 50 μL of each dilution was added to the 96-well plates.” for “FBS.”, “37°” for “37 0°”
(§5) In vitro potency was assessed on multiple cancer cell lines. […] After 96 hours, growth inhibition was assessed by CellTiterGlo® (Promega, Madison, WI) and luminescence was measured on a plate reader.

Another test relates to U266 cells. In words: In vitro potency (CellTiter-Glo, 96 h), U266. As to conditions: Homo sapiens, U-266; camptothecin drugs, Table 13; CellTiter-Glo after 96 h exposure. The protocol:
as §3, §4
as §3, with “FBS. Serial dilutions of antibody-drug conjugates in cell culture media were prepared at 4× working concentrations, and 50 μL of each dilution was added to the 96-well plates.” for “FBS.”, “37°” for “37 0°”
as §5

In test [7] the test system is melanoma cells (SK-MEL-5). In words: In vitro potency (CellTiter-Glo, 96 h), SK-MEL-5. The conditions noted are these: Homo sapiens, camptothecin drugs, Table 13, CellTiter-Glo after 96 h exposure. The procedure: as §3, §4
as §3, with “FBS. Serial dilutions of antibody-drug conjugates in cell culture media were prepared at 4× working concentrations, and 50 μL of each dilution was added to the 96-well plates.” for “FBS.”, “37°” for “37 0°”
as §5

The subject of a further test is melanoma cells (A2058). The experiment in a line: In vitro potency (CellTiter-Glo, 96 h), A2058. As to conditions: Homo sapiens, A2058, 96 h, read-out: A2058 IC50. Summed up:
(§6)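 Cells in log-phase growth are plated in RPMI 1640/20% FBS for 24 h. Serially diluted conjugates are then added, and plates are kept at 37 °C for 4 days before ATP-based luminescence gives growth inhibition.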

Test [8] concerns non-small-cell lung cancer cells (Calu1). In words: In vitro potency (CellTiter-Glo, 96 h), Calu1. As to conditions: Homo sapiens, Calu-1, 96 h, read-out: Calu1 IC50. In outline: as §6
The subject of test [9] is anaplastic large cell lymphoma cells (DEL). The experiment in a line: In vitro potency (CellTiter-Glo, 96 h), DEL. In outline: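 Log-phase cells were seeded for 24 h in RPMI 1640 with 20% FBS, then exposed to serially diluted antibody-drug conjugates or free camptothecin drug for 4 days at 37 °C. Growth inhibition was read by luminescence, and IC50 values were reported in ng/mL and nmol/L.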

Test [10] has as its system anaplastic large cell lymphoma cells (DELBVR). In words: In vitro potency (CellTiter-Glo, 96 h), DELBVR. In outline: as §1
The subject of test [11] is anaplastic large cell lymphoma cells (Karpas299). In words: In vitro potency (CellTiter-Glo, 96 h), Karpas299. The conditions noted are these: Homo sapiens, KARPAS-299, 96 h. In outline: as §1
The test system of the next test is Ls174T cells. The experiment in a line: In vitro potency (CellTiter-Glo, 96 h), Ls174T. As to conditions: Homo sapiens, LS174T, 96 h. In outline: as §2
In test [12] the test system is breast cancer cells (MDA-MB-231). The experiment in a line: In vitro potency (CellTiter-Glo, 96 h), MDA-MB-231. The conditions noted are these: Homo sapiens, MDA-MB-231, 96 h. In outline:
as §1

Setting [13] is: read-out: IC50 786-O, camptothecin drugs, Table 13, CellTiter-Glo after 96 h exposure.
Where [14] appears, read: read-out: IC50 BxPC3, camptothecin drugs, Table 13, CellTiter-Glo after 96 h exposure.
Where [15] appears, read: read-out: IC50 L540cy, camptothecin drugs, Table 13, CellTiter-Glo after 96 h exposure.
Setting [16] is: read-out: IC50 MOLM-13, camptothecin drugs, Table 13, CellTiter-Glo after 96 h exposure.
[17] abbreviates: read-out: IC50 SU-DHL-4, camptothecin drugs, Table 13, CellTiter-Glo after 96 h exposure.
The mark [18] stands for this setting: camptothecin free drug, 96 h, read-out: 786-O IC50.
Setting [19] is: camptothecin free drug, 96 h, read-out: BxPC3 IC50.
The mark [20] stands for this setting: camptothecin free drug, read-out: DEL IC50.
The mark [21] stands for this setting: camptothecin free drug, read-out: DELBVR IC50.
Where [22] appears, read: camptothecin free drug, 96 h, read-out: Karpas299 IC50.
Where [23] appears, read: camptothecin free drug, read-out: L540cy IC50.
[24] abbreviates: camptothecin free drug, read-out: Ls174T IC50.
Where [25] appears, read: camptothecin free drug, 96 h, read-out: MDAMB231 IC50.
[26] abbreviates: camptothecin free drug, 96 h, read-out: MOLM-13 IC50.
Where [27] appears, read: camptothecin free drug, 96 h, read-out: SU-DHL-4 IC50.

On to `CC[C@@]1(O)C(=O)OCc2c1cc1n(c2=O)Cc2c-1nc1cc3c(cc1c2CNc1ccc(N)cc1)OCO3` [Compound 7ab], for which the IC50 in test [1] (setting [13]) was found to be 1 nM; in test [2] (setting [14]), 1 nM; in [3] (setting [15]) it was 0.4 nM; in test [4] (setting [16]) it was 0.3 nM; in test [5] (setting [17]), 0.4 nM; in test [6], 0.4 nM. Further, the IC50 in the test on U266 cells amounted to 2 nM; in test [7], 1 nM.
Regarding `CC[C@@]1(O)C(=O)OCc2c1cc1n(c2=O)Cc2c-1nc1cc3c(cc1c2CNc1ccccc1N)OCO3` [Compound 7ac], the IC50 in test [1] (setting [13]) is 2 nM; in test [2] (setting [14]), 5 nM; in test [3] (setting [15]), 2 nM; in test [4] (setting [16]) it was 1 nM; in [5] (setting [17]) it was 1 nM; in test [6], 2 nM. Further, the figures for the IC50 (in the test on U266 cells; in test [7]) were 8 nM and 4 nM, respectively.
As to `CC[C@@]1(O)C(=O)OCc2c1cc1n(c2=O)Cc2c-1nc1cc3c(cc1c2CNc1cccc(N)c1)OCO3` [Compound 7ad], the IC50 in test [1] (setting [13]) came out at 5 nM; in test [2] (setting [14]) it was 6 nM; in test [3] (setting [15]) it was 2 nM; in test [4] (setting [16]), 1 nM; in test [5] (setting [17]) it was 2 nM; in test [6], 2 nM. Further, the IC50 is 8 nM in the test on U266 cells and 7 nM in [7].
With `CC[C@@]1(O)C(=O)OCc2c1cc1n(c2=O)Cc2c-1nc1cc3c(cc1c2CNC1CCN(C(=O)OC(C)(C)C)CC1)OCO3` [Compound 7q], the IC50 amounted to 26 nM in test [1] (setting [18]); 7 nM in the test on melanoma cells (A2058) (camptothecin free drug, 96 h); 28 nM in test [2] (setting [19]); 1000 nM in test [8] (camptothecin free drug, 96 h); 6 nM in [9] (setting [20]); 13 nM in test [10] (setting [21]). Also, the 50% inhibitory concentration (IC50) in test [11] (setting [22]) was 26 nM; in [3] (setting [23]) it was 15 nM; with Ls174T cells (setting [24]), 24 nM; in test [12] (setting [25]), 131 nM; in test [4] (setting [26]), 33 nM; in test [5] (setting [27]), 17 nM.
On to `CC[C@@]1(O)C(=O)OCc2c1cc1n(c2=O)Cc2c-1nc1cc3c(cc1c2CNCC(O)CO)OCO3` (stereo partly drawn) [Compound 7x], for which the 50% inhibitory concentration (IC50) is 88 nM in [1] (read-out: 786-O IC50, camptothecin free drug, 96 h); 18 nM in the test on melanoma cells (A2058); 79 nM in [2] (read-out: BxPC3 IC50, camptothecin free drug, 96 h); above 1000 nM in test [8]; 16 nM in test [9] (read-out: DEL IC50, camptothecin free drug, 96 h); 20 nM in [10] (read-out: DELBVR IC50, camptothecin free drug, 96 h). In addition, the IC50 in test [11] (read-out: Karpas299 IC50, camptothecin free drug, 96 h) is 54 nM; in test [3] (read-out: L540cy IC50, camptothecin free drug, 96 h), 32 nM; with Ls174T cells (read-out: Ls174T IC50, camptothecin free drug, 96 h), above 1000 nM; in [12] (read-out: MDAMB231 IC50, camptothecin free drug, 96 h) it was 523 nM; in [4] (read-out: MOLM-13 IC50, camptothecin free drug, 96 h), 574 nM; in test [5] (read-out: SU-DHL-4 IC50, camptothecin free drug, 96 h) it was 41 nM.
For the compound `CC[C@@]1(O)C(=O)OCc2c1cc1n(c2=O)Cc2c-1nc1cc3c(cc1c2CN1CCC(NC(=O)OC(C)(C)C)CC1)OCO3` [Compound 7y], the IC50 in [1] (setting [18]) was 31 nM; in the test with melanoma cells (A2058) (camptothecin free drug, 96 h), 7 nM; in test [2] (setting [19]) it was 28 nM; in test [8] (camptothecin free drug, 96 h) it was 896 nM; in test [9] (setting [20]) it was 8 nM; in test [10] (setting [21]) it was 14 nM. The IC50 in [11] (setting [22]) amounted to 36 nM; in test [3] (setting [23]), 15 nM; in the test with Ls174T cells (setting [24]) it was 17 nM; in test [12] (setting [25]), 140 nM; in [4] (setting [26]), 68 nM; in [5] (setting [27]), 23 nM.
Take `CCc1c(C)c(F)cc2nc3c(c(CN)c12)Cn1c-3cc2c(c1=O)COC(=O)[C@]2(O)CC` [Compound 10, (S)-11-(aminomethyl)-4,10-diethyl-8-fluoro-4-hydroxy-9-methyl-1,12-dihydro-14H-pyrano[3′,4′:6,7]indolizino[1,2-b]quinoline-3,14(4H)-dione]: the IC50 was determined as 54 nM in test [1] (read-out: 786-O IC50, Table 28, CPT free drugs, renal carcinoma cells 786-O, 96 h, CellTiter-Glo); 33 nM in the test with melanoma cells (A2058); 64 nM in [2] (read-out: BxPC3 IC50, Table 28, CPT free drugs, pancreatic cancer cells BxPC3, 96 h, CellTiter-Glo); 95 nM in [8]; 7 nM in [9] (read-out: DEL IC50, Table 28, CPT free drugs, anaplastic large cell lymphoma cells DEL, CellTiter-Glo); 15 nM in test [10] (read-out: DELBVR IC50, Table 28, CPT free drugs, anaplastic large cell lymphoma cells DELBVR, CellTiter-Glo). In addition, the IC50 was found to be 57 nM in [11] (read-out: Karpas299 IC50, Table 28, CPT free drugs, anaplastic large cell lymphoma cells Karpas299, 96 h, CellTiter-Glo); 51 nM in [3] (read-out: L540cy IC50, Table 28, CPT free drugs, Hodgkin's lymphoma cells L540cy, CellTiter-Glo); 33 nM with Ls174T cells (read-out: Ls174T IC50, Table 28, CPT free drugs, Ls174T cells, CellTiter-Glo); 59 nM in test [12] (read-out: MDAMB231 IC50, Table 28, CPT free drugs, breast cancer cells MDA-MB-231, 96 h, CellTiter-Glo); 149 nM in [4] (read-out: MOLM-13 IC50, Table 28, CPT free drugs, acute myeloid leukemia cells MOLM-13, 96 h, CellTiter-Glo); 15 nM in test [5] (read-out: SU-DHL-4 IC50, Table 28, CPT free drugs, B-lymphocyte cancer cells SU-DHL4, 96 h, CellTiter-Glo).

The record behind these values is US20240207427A1, “SELECTIVE DRUG RELEASE FROM INTERNALIZED CONJUGATES OF BIOLOGICALLY ACTIVE COMPOUNDS” (priority 2021, published 2024).
